Values of other authors in patent publication US20020042084A1, “Detection of NAALADase inhibitors” (Boehringer Ingelheim Pharma KG, priority 2000, published 2002).
Residues, ends and D or L forms follow the SMILES beside them.

tested on: NAALADase; settings: substrate specificity; Serval et al. 1992

Compound	hydrolysis by NAALADase
CC(=O)NC(CC(=O)O)C(=O)NC(CCC(=O)O)C(=O)O [D-NAAG] (Ac-Asp-Glu-OH; configuration not given here)	not hydrolyzed
CC(=O)N[C@@H](CC(=O)N[C@@H](CCC(=O)O)C(=O)O)C(=O)O [β-NAAG]	not hydrolyzed
C[C@H](N)C(=O)N[C@@H](CCC(=O)O)C(=O)O [Ala-Glu] (H-Ala-Glu-OH)	not hydrolyzed
